Data reported in article PMC6934184, “Selective DNA-PKcs inhibition extends the therapeutic index of localized radiotherapy and chemotherapy” (The Journal of Clinical Investigation, 2019).

Molecular target: T1, DCAMKL2 (DCK2) (Homo sapiens, UniProt Q8N568)
T1 construct: purchased Thermo Fisher Scientific (Life Technologies) SelectScreen
Assay: SelectScreen Z'LYTE
Assay type: biochemical
In short: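 Compound tested in SelectScreen activity assays, Z'LYTE for CSF1R, CDK1/cyclin B and MAP2K6 and Adapta for CAMK1. ATP for CAMK1 was listed as 10, and Km app was used for CSF1R. Results are expressed in percent.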

T1 sequence (Q8N568 whole entry): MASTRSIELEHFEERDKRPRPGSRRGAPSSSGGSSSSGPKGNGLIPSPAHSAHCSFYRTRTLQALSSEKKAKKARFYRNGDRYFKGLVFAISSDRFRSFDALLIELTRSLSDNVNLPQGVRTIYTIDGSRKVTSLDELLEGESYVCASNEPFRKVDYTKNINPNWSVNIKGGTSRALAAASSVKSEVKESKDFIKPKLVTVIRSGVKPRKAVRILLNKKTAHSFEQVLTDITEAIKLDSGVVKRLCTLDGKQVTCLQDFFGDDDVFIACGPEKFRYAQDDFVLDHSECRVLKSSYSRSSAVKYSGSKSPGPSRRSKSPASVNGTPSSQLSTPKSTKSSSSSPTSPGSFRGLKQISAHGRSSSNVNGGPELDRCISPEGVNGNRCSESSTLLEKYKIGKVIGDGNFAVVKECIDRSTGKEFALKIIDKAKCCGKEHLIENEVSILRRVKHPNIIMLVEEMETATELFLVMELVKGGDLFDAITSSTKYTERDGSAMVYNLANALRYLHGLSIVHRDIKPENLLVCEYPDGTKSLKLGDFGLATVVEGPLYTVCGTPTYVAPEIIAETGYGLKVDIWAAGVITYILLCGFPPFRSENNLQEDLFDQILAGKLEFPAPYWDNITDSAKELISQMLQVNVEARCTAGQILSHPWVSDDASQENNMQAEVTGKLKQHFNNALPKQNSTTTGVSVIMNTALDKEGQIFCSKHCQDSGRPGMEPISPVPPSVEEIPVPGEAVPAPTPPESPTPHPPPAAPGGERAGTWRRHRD

CN(C(=O)CN1CCOCC1)c1ccc2sc3c(-c4cccc5c(=O)cc(N6CC7CCC(C6)O7)oc45)cccc3c2c1 [NU5455]
inhibition at 1 µM: 1.5%
